Tests used:
human GALR3 [1] = molecular target: T1, human GALR3 (Homo sapiens, UniProt O60755); test: porcine 125I-galanin binding, LM(tk-) cells stably expressing human GALR3 (L-hGalR3-228)
T1 construct: The full-length human GALR3 gene contains 1107 bp within its coding region, encoding for a predicted protein of 368 aa; expressed in transfected cells
T1 sequence (O60755 1-368): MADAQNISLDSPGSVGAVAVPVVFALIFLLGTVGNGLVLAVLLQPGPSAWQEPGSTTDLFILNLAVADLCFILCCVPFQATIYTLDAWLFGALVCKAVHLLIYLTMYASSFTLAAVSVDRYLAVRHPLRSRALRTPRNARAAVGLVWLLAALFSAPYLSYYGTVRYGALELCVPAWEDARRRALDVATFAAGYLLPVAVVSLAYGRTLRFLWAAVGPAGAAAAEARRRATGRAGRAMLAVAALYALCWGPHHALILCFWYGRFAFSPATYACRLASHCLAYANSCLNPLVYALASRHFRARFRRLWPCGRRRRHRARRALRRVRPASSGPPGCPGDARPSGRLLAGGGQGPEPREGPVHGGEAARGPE

human GALR3 [2] = molecular target: T1, human GALR3; test: voltage clamp currents in Xenopus oocytes expressing hGALR3 and GIRK1/GIRK4; format: cell-based
Protocol: Activation of inwardly rectifying currents that are sensitive to 300 μM Ba^++ signifies GALR3 coupling to a Gαi or Gαo pathway in the oocytes.
Oocytes were isolated as described above, except that 3 mg/mL collagenase was used to defolliculate the oocytes.

rat GALR1 = molecular target: T2, rat GALR1 (Rattus norvegicus, UniProt Q62805); test: biochemical; format: binding; conditions: Table 9; read-out: Ki (nM) Rat GalR1 CHO
T2 construct: expressed in transfected cells; host or cells: CHO
T2 sequence (Q62805 1-346): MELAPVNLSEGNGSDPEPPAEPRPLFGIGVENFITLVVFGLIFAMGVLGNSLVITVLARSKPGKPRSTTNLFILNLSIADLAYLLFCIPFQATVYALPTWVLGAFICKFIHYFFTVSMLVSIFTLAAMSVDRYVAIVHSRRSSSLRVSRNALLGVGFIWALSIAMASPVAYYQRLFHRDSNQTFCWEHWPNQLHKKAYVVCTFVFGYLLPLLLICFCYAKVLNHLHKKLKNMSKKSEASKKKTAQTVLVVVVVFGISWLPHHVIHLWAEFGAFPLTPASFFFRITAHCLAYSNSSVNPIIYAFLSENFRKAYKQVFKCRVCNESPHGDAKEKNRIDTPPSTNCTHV

rat GALR2 = molecular target: T3, rat GALR2 (Rattus norvegicus, UniProt O08726); test: porcine 125I-galanin binding assay, Rat GALR2 LMTK #4
T3 construct: expressed in transfected cells
T3 sequence (O08726 1-372): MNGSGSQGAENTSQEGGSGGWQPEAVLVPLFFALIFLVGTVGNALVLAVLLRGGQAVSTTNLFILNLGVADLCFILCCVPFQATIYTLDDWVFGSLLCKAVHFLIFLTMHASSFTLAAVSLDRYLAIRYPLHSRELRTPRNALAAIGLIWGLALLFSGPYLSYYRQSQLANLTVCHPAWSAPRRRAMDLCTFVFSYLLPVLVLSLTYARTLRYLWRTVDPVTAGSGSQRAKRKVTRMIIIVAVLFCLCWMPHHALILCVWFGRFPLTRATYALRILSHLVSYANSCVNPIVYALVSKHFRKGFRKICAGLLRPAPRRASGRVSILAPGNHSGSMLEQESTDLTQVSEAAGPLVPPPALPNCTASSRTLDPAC

Hum GALR1 = molecular target: T4, Hum GALR1 (Homo sapiens, UniProt P47211); test: porcine 125I-galanin binding assay, Hum GALR1 LM(tk-); conditions: Table 10
T4 sequence (P47211 1-349): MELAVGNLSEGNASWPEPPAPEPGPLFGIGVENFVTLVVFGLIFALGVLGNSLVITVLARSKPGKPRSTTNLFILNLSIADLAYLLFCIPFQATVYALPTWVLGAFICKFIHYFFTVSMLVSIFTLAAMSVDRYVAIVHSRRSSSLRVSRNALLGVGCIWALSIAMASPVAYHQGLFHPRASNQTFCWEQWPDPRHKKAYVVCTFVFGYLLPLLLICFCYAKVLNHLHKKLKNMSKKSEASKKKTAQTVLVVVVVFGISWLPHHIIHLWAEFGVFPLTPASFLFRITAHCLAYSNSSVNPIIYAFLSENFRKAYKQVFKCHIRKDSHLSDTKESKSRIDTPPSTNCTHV

Hum GALR2 = molecular target: T5, Hum GALR2 (Homo sapiens, UniProt O43603); test: porcine 125I-galanin binding assay, Hum GALR2 CHO
T5 construct: expressed in transfected cells; host or cells: CHO
T5 sequence (O43603 1-387): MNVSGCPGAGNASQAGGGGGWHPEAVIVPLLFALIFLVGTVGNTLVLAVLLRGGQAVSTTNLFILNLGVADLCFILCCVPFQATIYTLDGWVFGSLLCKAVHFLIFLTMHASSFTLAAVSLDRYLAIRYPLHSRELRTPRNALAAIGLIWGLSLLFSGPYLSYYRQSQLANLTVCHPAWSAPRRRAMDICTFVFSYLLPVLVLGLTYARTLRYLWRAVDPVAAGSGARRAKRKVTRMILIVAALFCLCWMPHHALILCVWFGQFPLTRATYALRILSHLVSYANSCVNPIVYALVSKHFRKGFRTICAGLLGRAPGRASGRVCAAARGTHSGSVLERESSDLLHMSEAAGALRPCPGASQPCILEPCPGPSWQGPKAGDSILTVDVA

[3] = food intake after intracerebroventricular injection in rats; conditions: injected i.c.v.
Protocol: Measurement of food intake was performed for 3 hours after injection, but other protocols may also be used. Saline was injected as a control, but it is understood that other vehicles may be required as controls for some peptides and compounds. […] A preferred anatomic location for injection is the hypothalamus, in particular, the paraventricular nucleus.

rat GALR3 [4] = molecular target: T6, rat GALR3 (Rattus norvegicus, UniProt O88626); test: porcine 125I-galanin binding, rat GALR3 transiently expressed in COS-7 cell membranes; set-up: which comprises the entire coding region of rat GALR3; expressed in transfected cells; host or cells: COS-7, transient; conditions: peptide displacement assays
T6 sequence (O88626 1-370): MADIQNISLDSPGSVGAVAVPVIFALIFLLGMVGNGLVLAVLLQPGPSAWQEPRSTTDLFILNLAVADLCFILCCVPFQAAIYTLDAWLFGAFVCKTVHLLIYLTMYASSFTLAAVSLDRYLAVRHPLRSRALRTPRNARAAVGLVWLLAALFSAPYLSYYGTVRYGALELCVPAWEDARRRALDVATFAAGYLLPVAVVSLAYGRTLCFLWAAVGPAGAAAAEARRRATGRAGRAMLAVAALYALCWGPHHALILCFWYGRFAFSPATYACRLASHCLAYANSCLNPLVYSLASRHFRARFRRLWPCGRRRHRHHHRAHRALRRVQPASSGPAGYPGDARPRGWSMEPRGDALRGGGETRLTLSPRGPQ
Protocol: Assays were conducted at room temperature for 120 minutes, and leupeptin, aprotonin and phosphoramidon were omitted from the rat GALR3 assay, while bacitracin was added to 0.1%.

[5] = molecular target: T7, human α1A adrenergic receptor (Homo sapiens, UniProt P35348); format: cell-based
T7 construct: expressed in transfected cells; host or cells: Xenopus laevis oocytes, mRNA-injected
T7 sequence (P35348 1-466): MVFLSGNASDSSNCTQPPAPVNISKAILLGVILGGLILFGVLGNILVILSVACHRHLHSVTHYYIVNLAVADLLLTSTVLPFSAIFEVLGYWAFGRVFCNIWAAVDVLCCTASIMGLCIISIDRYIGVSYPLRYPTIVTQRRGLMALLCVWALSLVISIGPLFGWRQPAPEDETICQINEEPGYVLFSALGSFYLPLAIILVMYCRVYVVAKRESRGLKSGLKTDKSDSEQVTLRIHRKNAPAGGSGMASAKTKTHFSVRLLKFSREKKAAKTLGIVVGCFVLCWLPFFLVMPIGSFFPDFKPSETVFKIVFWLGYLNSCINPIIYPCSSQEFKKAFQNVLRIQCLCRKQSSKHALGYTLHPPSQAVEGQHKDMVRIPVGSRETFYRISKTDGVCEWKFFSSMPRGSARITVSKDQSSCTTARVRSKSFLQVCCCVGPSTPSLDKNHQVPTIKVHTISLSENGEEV
Protocol: FIG. 7 Pertussis toxin sensitivity of GalR3 and GalR1 stimulation of GIRK currents. […] . Number of observations appears in parenthesis below the x-axis. Apparent absence of a bar indicates an amplitude of 0 (no response above baseline).
5′-[…] […]-3′ (SEQ ID NO. 59). […] The new plasmid was designated M52.
Experiments were carried out at room temperature.

rat GALR3 [6] = molecular target: T6, rat GALR3; test: porcine 125I-galanin binding, membranes of stable cell line 293-rGalR3-105; set-up: which comprises the entire coding region of rat GALR3; expressed in transfected cells; conditions: Ki (nM) Rat GALR3 293 #105, Table 9
[7] = Ki (nM) Hum GALR3 LMTK− #8, Table 10

Compound | Ki (human GALR3 [1]; [7]) [nM] | Ki (human GALR3 [1]; Ki (nM) Human L-hGalR3-228, Table 5, stable) [nM] | Ki (human GALR3 [1]; human GALR3LM (tk−) Ki (nM), Table 8) [nM] | EC50 (human GALR3 [2]) [nM] | agonist activity at human GALR3 in oocytes (human GALR3 [2]) | Ki (rat GALR1) [nM] | Ki (rat GALR2) [nM] | Ki (Hum GALR1) [nM] | Ki (Hum GALR2) [nM] | feeding / food intake in words [3] | binding affinity for rat GALR3 in words (rat GALR3 [4]) | Cl− currents in oocytes expressing α1a receptors [5] | Ki (rat GALR3 [6]) [nM]
CC[C@H](C)[C@H](NC(=O)[C@H](C)NC(=O)[C@H](Cc1c[nH]cn1)NC(=O)[C@@H]1CCCN1C(=O)CNC(=O)[C@H](CC(C)C)NC(=O)[C@H](CC(C)C)NC(=O)[C@H](Cc1ccc(O)cc1)NC(=O)CNC(=O)[C@H](C)NC(=O)[C@H](CO)NC(=O)[C@H](CC(N)=O)NC(=O)[C@H](CC(C)C)NC(=O)[C@@H](NC(=O)[C@H](Cc1c[nH]c2ccccc12)NC(=O)CNC(=O)[C@H](CCCNC(=N)N)NC(=O)[C@H](CCCCN)NC(=O)[C@H](CCC(=O)O)NC(=O)[C@H](CCCCN)NC(=O)[C@@H](NC(=O)[C@@H]1CCCN1C(=O)[C@@H](N)CO)C(C)C)[C@@H](C)O)C(=O)N[C@@H](CC(=O)O)C(=O)N[C@@H](CC(N)=O)C(=O)N[C@@H](Cc1c[nH]cn1)C(=O)N[C@@H](CCCNC(=N)N)C(=O)N[C@@H](CO)C(=O)N[C@@H](Cc1ccccc1)C(=O)N[C@@H](Cc1c[nH]cn1)C(=O)N[C@@H](CC(=O)O)C(=O)N[C@@H](CCCCN)C(=O)N[C@@H](Cc1ccc(O)cc1)C(=O)NCC(=O)N[C@@H](CC(C)C)C(=O)N[C@@H](C)C(N)=O [galanin −7 to +29, (−7) to (+29) galanin, porcine] | 28.8 | 29 | 28.8 | 1910 | evoked agonist activity | 36.3 | 3.16 | 6.84 | 4.95 | induces feeding | affinity comparable to that for porcine galanin | – | –
CNC[C@H](O)c1ccc(O)c(O)c1 [epinephrine] | – | – | – | – | – | – | – | – | – | – | – | stimulates transient Cl^− currents | –
CC[C@H](C)[C@H](NC(=O)[C@H](C)NC(=O)[C@H](Cc1c[nH]cn1)NC(=O)[C@@H]1CCCN1C(=O)CNC(=O)[C@H](CC(C)C)NC(=O)[C@H](CC(C)C)NC(=O)[C@H](Cc1ccc(O)c(I)c1)NC(=O)CNC(=O)[C@H](C)NC(=O)[C@H](CO)NC(=O)[C@H](CC(N)=O)NC(=O)[C@H](CC(C)C)NC(=O)[C@@H](NC(=O)[C@@H](Cc1c[nH]c2ccccc12)NC(=O)CN)[C@@H](C)O)C(=O)N[C@@H](CC(=O)O)C(=O)N[C@@H](CC(N)=O)C(=O)N[C@@H](Cc1c[nH]cn1)C(=O)N[C@@H](CCCNC(=N)N)C(=O)N[C@@H](CO)C(=O)N[C@@H](Cc1ccccc1)C(=O)N[C@@H](Cc1c[nH]cn1)C(=O)N[C@@H](CC(=O)O)C(=O)N[C@@H](CCCCN)C(=O)N[C@@H](Cc1ccc(O)c(I)c1)C(=O)NCC(=O)N[C@@H](CC(C)C)C(=O)N[C@@H](C)C(N)=O [D-Trp2-(d-iodo-L-Tyr9)-(3-iodo-L-Tyr26)-galanin] | 933 | – | – | – | – | – | – | – | – | – | – | – | 182
CC[C@H](C)[C@H](NC(=O)[C@H](C)NC(=O)[C@H](Cc1c[nH]cn1)NC(=O)[C@@H]1CCCN1C(=O)CNC(=O)[C@H](CC(C)C)NC(=O)[C@H](CC(C)C)NC(=O)[C@H](Cc1ccc(O)cc1)NC(=O)CNC(=O)[C@H](C)NC(=O)[C@H](CO)NC(=O)[C@H](CC(N)=O)NC(=O)[C@H](CC(C)C)NC(=O)[C@@H](NC(=O)[C@H](Cc1c[nH]c2ccccc12)NC(=O)CNC(=O)[C@H](CCCNC(=N)N)NC(=O)[C@H](CCCCN)NC(=O)[C@H](CCC(=O)O)NC(=O)[C@H](CCCCN)NC(=O)[C@@H](NC(=O)[C@@H]1CCCN1C(=O)[C@H](CO)NC(=O)CNC(=O)[C@@H](N)CC(C)C)C(C)C)[C@@H](C)O)C(=O)N[C@@H](CC(=O)O)C(=O)N[C@@H](CC(N)=O)C(=O)N[C@@H](Cc1c[nH]cn1)C(=O)N[C@@H](CCCNC(=N)N)C(=O)N[C@@H](CO)C(=O)N[C@@H](Cc1ccccc1)C(=O)N[C@@H](Cc1c[nH]cn1)C(=O)N[C@@H](CC(=O)O)C(=O)N[C@@H](CCCCN)C(=O)N[C@@H](Cc1ccc(O)cc1)C(=O)NCC(=O)N[C@@H](CC(C)C)C(=O)N[C@@H](C)C(N)=O [(−)9 to (+)29 galanin, porcine] | 50.1 | – | – | – | – | 51.3 | 3.47 | 7.85 | 5.43 | – | – | – | 4.17

Source: patent US6368812B1 (priority 1996, dated 2002)
